Tests used:
[1] = test system: human/murine cancer cells; test: In vitro cell viability of cancer cells (calcein-AM, CASP3, ANXA5); format: cell-based; conditions: ELANE 3 μg/ml
Text: Cell lines. The ovarian cancer cell lines—CAOV3, OVCAR3, OVCAR4, OVCAR5, A2780, A2780/CP70, HeyA8, TykNu, SKOV3, ID8, and ID8p53-/- were a gift from Dr. Ernst Lengyel, University of Chicago. The breast cancer cell lines—MDA-MB-231, MDA-MB-231.BM1, MCF-7, M6C, E0771, and E0771.LMB were a gift from Dr. Marsha Rosner, University of Chicago. The colon carcinoma cell line RKO, glioblastoma cancer cell line T98G, osteosarcoma cell lines U-2OS and Saos-2, and the hepatocellular carcinoma cell line HepG2 were a gift from Dr. Kay McLeod, University of Chicago. The lung cancer cell line NCI-H552 was a gift from Dr. Stephanie Huang, University of Chicago, and A549 and LLC1 cells were purchased from ATTC. The melanoma cell lines—B16F10, Mel888, Mel1106, and SK-MEL-28 cells were a gift from Dr. Thomas Gajewski, University of Chicago. The pancreatic cancer cell line PANC1 was a gift from Dr. Yamuna Krishnan, University of Chicago. The leukemia cell line K562 was a gift from Dr. Amittha Wickrema, University of Chicago.
The prostate cancer cell lines—CWR22Rv1, LAPC4, and LNCaP were a gift from Dr. Donald Vander Griend, University of Chicago. The neuroblastoma cell lines—SK-N-BE(2) and NBL-WN cells were a gift from Dr. Lucy Godley, University of Chicago.
Neutrophil media collections. Freshly isolated human or murine neutrophils were plated in serum-free DMEM for 24 h. Conditioned media was collected, spun at 500×g for 5 min, and media protein levels were determined with a Bradford assay (Biorad).
PMN media manipulations. For boiling, PMN media was boiled at 95° C. for 5 min and spun at 15,000×g for 10 min to remove precipitated proteins. For dialysis, PMN media was placed into a Slide-a-Lyzer™ cassette (3.5 kDa cutoff, ThermoFisher Scientific) and dialyzed against 2×4L of PBS at 4° C. for 4 h. For PMSF-inactivation, PMN media was treated with PMSF (1 mM, Sigma) or A1AT (42 nM, Athens Research & Technology) and incubated at room temperature for up to 2 h. Residual PMSF was eliminated with a PD-10 desalting column (GE Healthcare Life). Inhibition of ELANE catalytic activity was confirmed using a chromogenic substrate activity assay (see below). For serum-spiking experiments, human, mouse, or fetal bovine serum (1% or 10%) was added to PMN media prior to or after exposing cancer cells. For immune-depletion studies, ELANE or ECP were immunoprecipitated using anti-ELANE (N2C3, GeneTx) or anti-ECP (MB S2535165, MyBioSource) coupled to Pierce™ Protein A/G Magnetic Beads (ThermoFisher Scientific).
(§1) In vitro cell viability assays. […] Luminescence was measured using a Victor X3 luminometer (PerkinElmer).

[2] = test system: Human monocyte-derived macrophages (HMDMs); test: Cell viability of HMDMs treated with purified ELANE or ECP; format: cell-based
Experimental: Primary human blood-derived cells.
as §1

MDA-MB-231 cells = test: Cell viability of MDA-MB-231 cells treated with purified ELANE or ECP; format: cell-based, human; conditions: MDA-MB-231
Experimental: as §1

[3] = test system: survival, stress, and apoptosis pathways in normal or non-cancer cells; test: Killing program in normal or non-cancer cells; format: cell-based
Experimental: (§2) Western Blot Analysis. Cells were lysed with 1% SDS containing protease and phosphatase inhibitors (Sigma), and protein was quantified with the BCA Protein Assay Kit (Pierce). Proteins (10-20 μg) were resolved on 10%, 12.5%, 15%, or 20% SDS-PAGE gels depending on the target protein, transferred to PVDF membranes (Millipore), blocked with 5% BSA (Sigma) in 0.1% TBS/Tween-20 at RT for 2 hrs, stained with primary and secondary antibodies, and visualized using the ECL detection kit (Biorad) and a LI-COR imager. Antibodies—Antibodies against pERK (4370), ERK (4695), pNFκB (3033), NFκB (8242), pJNK (4668), JNK (9252), CASP3 (9662), PARP (9542), H2AX (2595), TUBB (2125) were from Cell Signaling Technology. Antibodies against γH2AX (05-636-I, Millipore), ELANE (68672, Abcam), N-terminal CD95 (3070R, BioVision), and C-terminal CD95 (60196, Proteintech).
(§3) Mitochondrial ROS measurements. Cells were treated with various doses of ELANE for 30 min, washed, labeled with the CM-H2DCFDA dye (ThermoFisher Scientific, 10 μM) for 30 min at 37° C., and fluorescence was quantified by flow cytometry.

[4] = test system: survival, stress, and apoptosis pathways in cancer cells; test: Killing program in cancer cells (western blot, mitochondrial ROS); format: cell-based; conditions: all 6 cancer cell lines tested
Experimental: as §2, §3

CD95 = CD95 cleavage in cancer cells by western blotting; format: cell-based
Experimental: FIGS. 1A-1K. ELANE cleaves CD95 to selectively kill cancer cells. (A): Heatmap summary of ELANE's effects on survival, stress, and apoptosis pathways in cancer cells and healthy cells. (B-C): Cancer cells were treated with ELANE (100 nM) and CD95 cleavage was assessed by western blotting using anti-N-terminal (B) or anti-C-terminal antibodies (C). *, lower molecular weight CD95 fragment. (D): Cancer cells or non-cancer cells were transduced to overexpress CD95 proteins, and effects on ELANE-mediated apoptosis were quantified by ANXAS at 30 min. n=2/group. See FIG. 1I for transduction and CD95 over-expression. (E): Cleavage of recombinant human CD95 N-terminal (aa 1-173) or C-terminal (aa 212-335) proteins by ELANE was assessed by SDS-PAGE and Coomassie blue staining. (F): Bands from (E) were digested with trypsin and analyzed by mass spectrometry to identify putative ELANE cleavage sites (i.e., peptides with non-tryptic ends). Major non-tryptic peptides were quantified by ion chromatograms. (G): Schematic of ELANE cleavage sites in CD95. […] (H): Cleavage of recombinant peptides corresponding to aa 214-231 and aa 317-335 in CD95 by ELANE was monitored by mass spectrometry. […] Effect of Dynasore on cancer cell killing capability of ELANE (measured by calcein-AM). n=6/group. […]

Substance: ELANE: neutrophil elastase, a serine protease released by human PMNs
- apoptosis in cancer cell lines [1]: effectively induced apoptosis in all cancer cell lines tested
- cell viability, purified protein [2]: did not kill Human monocyte-derived macrophages (HMDMs)
- cell viability, purified protein (MDA-MB-231 cells): killed MDA-MB-231 cells in a dose-dependent manner
- killing program in normal or non-cancer cells [3]: did not induce this program in all normal or non-cancer cells tested
- DNA damage (γH2AX) [4]: induced DNA damage
- mitochondrial ROS (MT ROS) [4]: increased MT ROS
- pro-apoptotic pathways (cCASP3 and cPARP) [4]: activated pro-apoptotic pathways
- survival pathways (phosphorylation of ERK, NFκB, or JNK) [4]: suppressed at least one survival pathway
- loss of full-length CD95 after cleavage (CD95): did not result in loss of full-length CD95
- CD95 cleavage in cancer cells (CD95; ELANE 100 nM): cleaved CD95 in all cancer cells tested
